Eleven molecules from patent US5674905A, “Bicyclooctane and bicycloheptane derivatives” (James Black Foundation Limited, priority 1992, dated 1997) can be followed below.

Experiment [1] has as its target T1, CCKB receptor (Mus musculus, UniProt P56481).
T1 construct: The cortex was dissected, weighed and homogenised in 40 ml ice-cold buffer; from tissue; host or cells: cerebral cortex membranes of male CD1 mice (Charles River)
T1 sequence (P56481 1-453): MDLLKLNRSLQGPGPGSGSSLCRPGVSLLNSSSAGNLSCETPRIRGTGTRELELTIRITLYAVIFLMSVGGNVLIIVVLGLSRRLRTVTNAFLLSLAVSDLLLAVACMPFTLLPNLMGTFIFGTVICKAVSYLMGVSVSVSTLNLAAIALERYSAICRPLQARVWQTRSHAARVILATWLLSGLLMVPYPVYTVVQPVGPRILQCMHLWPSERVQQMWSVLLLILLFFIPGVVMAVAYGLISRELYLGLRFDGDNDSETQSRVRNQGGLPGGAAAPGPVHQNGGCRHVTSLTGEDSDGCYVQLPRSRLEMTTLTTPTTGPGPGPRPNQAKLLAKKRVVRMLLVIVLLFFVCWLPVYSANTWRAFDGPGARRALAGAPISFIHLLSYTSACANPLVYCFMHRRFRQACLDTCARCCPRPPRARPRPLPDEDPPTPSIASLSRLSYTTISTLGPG
The experiment in a line: radioligand binding assay at the CCKB receptor in mouse cortical membranes ([125I]-CCK8S). The note with it: 150 min at 21±3°; for Ki: read-out: CCKB pKi (converted). The method in brief: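 Competition binding on cortical membranes from male CD1 mice in pH 7.2 HEPES buffer with bacitracin, using [125I]-CCK8S (200 pM) and test compound, 150 min at 21±3°. Non-specific binding defined with L-365,260 ([…]). Bound radioactivity collected by filtration and gamma-counted.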

Experiment [2] concerns the target T2, gastrin receptors (Rattus norvegicus, UniProt P30553).
T2 construct: from tissue; host or cells: isolated perfused whole stomach of immature rats (33-50 g, ca. 21 days old)
T2 sequence (P30553 1-452): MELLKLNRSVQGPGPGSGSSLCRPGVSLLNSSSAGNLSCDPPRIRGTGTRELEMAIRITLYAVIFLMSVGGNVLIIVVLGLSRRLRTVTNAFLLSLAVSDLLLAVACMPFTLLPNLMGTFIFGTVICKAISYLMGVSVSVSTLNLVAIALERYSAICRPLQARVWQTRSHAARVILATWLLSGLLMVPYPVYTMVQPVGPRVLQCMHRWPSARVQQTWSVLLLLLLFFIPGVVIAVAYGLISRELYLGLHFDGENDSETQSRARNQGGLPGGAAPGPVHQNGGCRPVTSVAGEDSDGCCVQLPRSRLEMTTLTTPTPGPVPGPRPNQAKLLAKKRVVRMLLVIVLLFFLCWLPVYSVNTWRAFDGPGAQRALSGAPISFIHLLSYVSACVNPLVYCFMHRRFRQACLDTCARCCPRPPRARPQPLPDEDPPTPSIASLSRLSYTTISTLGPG
The experiment is described as follows: gastrin antagonist activity in an immature rat stomach assay (pentagastrin-stimulated acid secretion). The following applies: isolated immature rat stomach, cumulative pentagastrin dose-response curves; for Kb: read-out: Gastrin pKB (converted). How it is done: The compounds of the examples were also tested for gastrin antagonist activity in an immature rat stomach assay. The procedure was as follows:
The oesophagus of immature rats (33-50 g, ca. 21 days old) was ligated at the level of the cardiac sphincter and the duodenal sphincter was cannulated. The stomach was excised and flushed with ca. 1 ml of unbuffered physiological saline solution. The fundus was punctured and cannulated. A further 4-5 ml of unbuffered solution was flushed through the stomach to ensure the preparation was not leaking. The stomach was lowered into a jacketed organ bath containing 40 ml of buffered solution containing 3×10^-8 M 5-methyl-furmethide, maintained at 37° and gassed vigorously with 95% O2 /5% CO2. The stomach was continuously perfused at a rate of 1 ml min^-1 with unbuffered solution gassed with 100% O2 with the perfusate passing over an internally referenced pH-electrode fixed 12 cm above the stomach.
After 120 min of stabilisation the drugs were added directly to the serosal solution in the organ bath and after a further 60 min cumulative pentagastrin dose-response curves were started. Changes in acid secretion were monitored and the curves analysed according to Black et. al., Br. J. Pharmacol., 1985, 86, 581.

Experiment [3] concerns the target T3, CCKA (Cavia porcellus, UniProt Q63931).
T3 construct: The pancreatata were removed from male guinea-pigs (200-300 g; Dunkin Hartley); from tissue; host or cells: pancreas membranes of male Dunkin Hartley guinea-pigs
T3 sequence (Q63931 1-430): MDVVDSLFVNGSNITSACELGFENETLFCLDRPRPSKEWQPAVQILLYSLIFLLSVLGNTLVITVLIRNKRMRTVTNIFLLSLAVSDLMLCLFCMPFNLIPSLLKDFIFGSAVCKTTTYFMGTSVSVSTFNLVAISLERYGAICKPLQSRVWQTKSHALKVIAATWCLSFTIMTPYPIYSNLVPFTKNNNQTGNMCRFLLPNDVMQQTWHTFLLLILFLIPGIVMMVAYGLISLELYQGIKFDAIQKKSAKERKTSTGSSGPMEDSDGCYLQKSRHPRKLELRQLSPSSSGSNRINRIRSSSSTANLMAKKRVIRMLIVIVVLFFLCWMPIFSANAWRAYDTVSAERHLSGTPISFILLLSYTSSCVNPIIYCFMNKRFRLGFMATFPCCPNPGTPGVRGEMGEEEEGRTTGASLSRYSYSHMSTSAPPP
The experiment in a line: CCKA binding assay in guinea-pig pancreas membranes ([125I]-CCK8(S)). The following applies: 150 minutes at 21±3°; for Ki: 0.375 μM PD134,308, read-out: CCKA pKi (converted); for CCKA pKi: 0.375 μM PD134,308. How it is done:
The compounds of the examples were also tested in a CCKA binding assay as follows:
The pancreatata were removed from male guinea-pigs (200-300 g; Dunkin Hartley) and placed in ice-cold HEPES buffer (pH 7.2 @ 21±3°). The pancreatata were homogenised in 40 ml ice-cold HEPES buffer using a polytron (Brinkmann, PT10, setting 10) 4×1 second. The homogenate was centrifuged at 39,800 g for 15 min at 4°. The supernatant was discarded and the pellet re-suspended using a Teflon-in-glass homogeniser in 20 volumes of fresh buffer and re-centrifuged as above. The final pellet was re-suspended using a Teflon-in-glass homogeniser to a tissue concentration of 1 mg.ml^-1 (original wet weight), and filtered through 500 μm pore-size Nytex mesh.
The membranes (400 μl; containing 0.375 μM PD134,308) are incubated for 150 minutes at 21±3° in a final volume of 0.5 ml with HEPES buffer containing [^125 I]-CCK8 (S)(50 μl; pM) and competing compound. Total and non-specific binding of [^125 I]-CCK8 (S) are defined using 50 μl of buffer and 50 μl of 100 nM L-364,718 respectively. The assay is terminated by rapid filtration through pre-soaked Whatman GF/B filters using a Brandell Cell Harvester. The filters were washed (3×3 ml) with ice-cold 50 mM Tris HCl (pH 7.4 at 4°) and bound radioactivity is determined by counting (1 min) in a gamma counter.

Regarding `O=C(NCC12CC3CC(CC(C3)C1)C2)C1C2C=CC(c3ccccc32)C1C(=O)N[C@H](Cc1c[nH]c2ccccc12)C(=O)O` (single isomer, unassigned) [Example 18, exo-cis-7-(2-R-(3-indolyl)-1-carboxy-ethylaminocarbonyl)-8-(1-adamantylmethylaminocarbonyl)-5,6-benzobicyclo[2.2.2]oct-2-ene], the Ki in experiment [1] was 794 nM; in experiment [3], 1 µM. The Kb in experiment [2] was 1000 nM.
Regarding `O=C1CC2c3ccccc3C1C(C(=O)N1CCC[C@@H]1C(=O)O)C2C(=O)NCC12CC3CC(CC(C3)C1)C2` (single isomer, unassigned) [Example 34, endo-cis-7-(2-R-carboxy-pyrrolidinocarbonyl)-8-(1-adamantylmethylaminocarbonyl)-2-oxo-5,6-benzobicyclo[2.2.2]octane], the figures for the Ki in experiment [1] and in experiment [3] were 6310 nM and 7.94 µM, respectively.
As to `O=C(O)CNC(=O)[C@H]1CCCN1C(=O)C1C2c3ccccc3C(c3cc4ccccc4cc32)C1C(=O)NCC12CC3CC(CC(C3)C1)C2` (single isomer, unassigned) [Example 37, cis-7-(2R-carboxymethylaminocarbonyl-pyrrolidinocarbonyl)-8-(1-adamantylmethylaminocarbonyl)-2,3-benzo-5,6-(2,3-naphtho)bicyclo[2.2.2]octane], the Ki is 158 nM in experiment [1] and 3.16 µM in experiment [3]. The Kb in experiment [2] is 501 nM.
With `O=C(O)CNC(=O)[C@H]1CCCN1C(=O)C1C2c3ccccc3C(c3cc4ccccc4cc32)C1C(=O)NCC12CC3CC(CC(C3)C1)C2` (single isomer, unassigned) [Example 38, cis-7-(2R-carboxymethylaminocarbonyl-pyrrolidinocarbonyl)-8-(1-adamantylmethylaminocarbonyl)-2,3-benzo-5,6-(2,3-naphtho)bicyclo[2.2.2]octane], the Ki is 251 nM in experiment [1] and 7.94 µM in experiment [3]. The Kb in experiment [2] was 631 nM.
Turning to `C[C@@H](NC(=O)[C@H]1CCCN1C(=O)C1C2CCC(c3ccccc32)C1C(=O)NCC12CC3CC(CC(C3)C1)C2)C(=O)O` (stereo partly drawn) [Example 41, cis-exo-7-(2R-(1R-carboxyethylaminocarbonyl)-pyrrolidinocarbonyl)-8-(1-adamantylmethylaminocarbonyl)-2,3-benzobicyclo[2.2.2]octane], the Ki is 5010 nM in experiment [1] and 7.94 µM in experiment [3].
For `O=C(O)CNC(=O)[C@H]1CCCN1C(=O)C1C2CCC(c3ccccc32)C1C(=O)NCC12CC3CC(CC(C3)C1)C2` (stereo partly drawn) [Example 42, cis-exo-7-(2R-carboxymethylaminocarbonyl-pyrrolidinocarbonyl)-8-(1-adamantylmethylaminocarbonyl)-2,3-benzobicyclo[2.2.2]octane], the Ki was 3980 nM in experiment [1] and 6.31 µM in experiment [3].
For `C[C@H](NC(=O)[C@@H]1CCCN1C(=O)C1C2CCC(c3ccccc32)C1C(=O)NCC12CC3CC(CC(C3)C1)C2)C(=O)O` (stereo partly drawn) [Example 43, cis-exo-7-(2S-(1S-carboxyethylaminocarbonyl)-pyrrolidinocarbonyl)-8-(1-adamantylmethylaminocarbonyl)-2,3-benzobicyclo[2.2.2]octane], the Ki in experiment [1] is 2000 nM; in experiment [3], 10 µM.
For `O=C(O)c1cc(NC(=O)[C@H](Cc2ccccc2)NC(=O)C2C3CCC(c4ccccc43)C2C(=O)NCC23CC4CC(CC(C4)C2)C3)cc(C(=O)O)c1` (stereo partly drawn) [Example 61, exo-cis-7-(1S-(3,5-dicarboxyphenylaminocarbonyl)-2-phenyl-ethylaminocarbonyl)-8-(1-adamantylmethylaminocarbonyl)-2,3-benzobicyclo[2.2.2]octane], in experiment [1], the Ki was 1000 nM. For the same molecule, the Kb in experiment [2] was 251 nM.
Regarding “(±)-endo-cis-8-(1-adamantylmethylaminocarbonyl)-2-(±)-benzyl-5,6-benzobicyclo[2.2.2]octane-7-carboxylic acid [Example 36]”, the “CCKB pKi” value in experiment [1] worked out at 5.8. Moreover, the “CCKA pKi” value in experiment [3] was 5.4.
On the same counts, the results for “endo-cis-7-(2-R-carboxy-pyrrolidinocarbonyl)-8-(1-adamantylmethylaminocarbonyl)-2-oxo-5,6-benzobicyclo[2.2.2]octane [Example 35]” are 5.0 and 4.8.
For “exo-cis-7-(2-R-(3-indolyl)-1-carboxy-ethylaminocarbonyl)-8-(1-adamantylmethylaminocarbonyl)-5,6-benzobicyclo[2.2.2]oct-2-ene [Example 17]”, the “CCKB pKi” value in experiment [1] came out at 6.8. Also, the “Gastrin pKB” value in experiment [2] (60 min) is 6.2. In addition, the “CCKA pKi” value in experiment [3] worked out at 6.3.
